pEC50: −log10 of the molar value.

One data set concerns hepatitis B virus (HBV). Briefly: Anti-hepatitis B virus activity: HBV DNA in supernatant of HepG2.2.15 cells by qPCR. The data set is classed as cell-based. Particulars: 192 h, supernatant collected on day 8. The text has this:
(§1) In this experiment, real-time fluorescent quantitative PCR (qPCR) method was used to detect the content of HBV DNA in the supernatant of HepG2.2.15 cells to determine the anti-hepatitis B virus activity of the compound in HepG2.2.15 cells, and to detect cell viability impact of the test compound against HepG2.2.15 by Cell-titer Blue method. In the experiment, entecavir (ETV) was used as a reference compound to monitor the quality of the experiment.
On day 1, the cells were planted into a 96-well plate, the compound was added to treat the cells on day 2, a new culture medium containing the compound was replaced on day 5, and the supernatant was collected on day 8 to extract DNA. Quantitative PCR was used to detect the content of HBV DNA. Both the test compound and the control compound were diluted in a series of 3 times with 8 concentration points, and 2 replicate wells were measured in parallel. The final concentration of DMSO in the culture medium is 0.5%.
The calculation formula of the inhibition percentage is as follows: % inh.=(1-HBV copy number of sample/HBV copy number of 0.5% DMSO control)×100
EC50 was analyzed by Graphpad Prism software (four parameter logistic equations).
On the technique in general: In qPCR the cycle at which signal appears reflects the starting amount.

A short description of data set [1]: Cytotoxicity test (Cell-titer Blue method) in HepG2.2.15 cells. The data set is classed as cell-based. Particulars: human, six days after treatment, highest concentration tested 100 μM, read-out: HepG2.2.15 cell viability CC50.
Text: as §1
The compound concentration, plate layout, and compound treatment process are consistent with the antiviral experiments. In six days after the cells were treated with the compound, the cell viability was measured with Cell-titer Blue.
Analyze the data and calculate relative cell viability: Use the following formula to calculate the percentage of cell viability: % Cell viability=(sample fluorescence reading-fluorescence reading of culture medium control)/(fluorescence reading of DMSO control-fluorescence reading of the culture medium control)×100.
Finally, GraphPad Prism software was used to calculate the CC50 value of the compound.

A word on the pEC50: it is the negative decadic logarithm of the EC50, by convention in mol/L. Usually CC50 stands for the concentration that lowers cell viability or growth by half. Regarding `Cc1c(C(=O)C(=O)NC(C)C(F)(F)F)c(C)n(C)c1C(=O)Nc1ccc2occc2c1` (stereo in doubt) [Compound 56, 1,3,5-Trimethyl-2-amide-N-(benzofuran-5-yl)-4-(2-((S)-1,1,1-trifluoropropane-2-Amino)-oxalyl)-pyrrole], the pEC50 in the data set with hepatitis B virus (HBV) is ≥ 7.30. For the same molecule, the CC50 at 6 days in data set [1] was > 100 µM.

`Cc1oc(C(=O)C(=O)NC(C)(C)C)cc1C(=O)Nc1ccc(F)c(Cl)c1` [Compound 1, 2-Methyl-3-amide-N-(3-chloro-4-fluorophenyl)-5-(2-tert-butylamino-oxalyl)-furan] showed a pEC50 in the data set with hepatitis B virus (HBV) of 5.30 to 6.30. The CC50 at 6 days in data set [1] was > 100 µM.

`C#CC(C)NC(=O)C(=O)c1cc(C(=O)Nc2ccc(F)c(Cl)c2)c(C)o1` (stereo not drawn) [Compound 3, 2-Methyl-3-amide-N-(3-chloro-4-fluorophenyl)-5-(2-(1-methylpropynamido)-oxalyl)-furan] gave a negative-log EC50 (pEC50) with hepatitis B virus (HBV) of 5.30 to 6.30. In data set [1], the CC50 at 6 days is > 100 µM.

In turn, `C#CC(C)(C)NC(=O)C(=O)c1cc(C(=O)Nc2ccc(F)c(Cl)c2)c(C)o1` [Compound 4, 2-Methyl-3-amide-N-(3-chloro-4-fluorophenyl)-5-(2-(1,1-dimethylpropynamido)-oxalyl)-furan] had a pEC50 with hepatitis B virus (HBV) of 5.30 to 6.30. For the same molecule, in data set [1], the CC50 at 6 days is > 100 µM.

In turn, `CC#CCNC(=O)C(=O)c1cc(C(=O)Nc2ccc(F)c(Cl)c2)c(C)o1` [Compound 5, 2-Methyl-3-amide-N-(3-chloro-4-fluorophenyl)-5-(2-(2-alkynylbutylamino)-oxalyl)-furan] had a pEC50 in the data set on hepatitis B virus (HBV) of 4.30 to 5.30. For the same molecule, the CC50 at 6 days in data set [1] is > 100 µM.

Regarding `Cc1oc(C(=O)C(=O)NCC#CC(C)C)cc1C(=O)Nc1ccc(F)c(Cl)c1` [Compound 6, 2-Methyl-3-amide-N-(3-chloro-4-fluorophenyl)-5-(2-(4-methyl-2-ynylpentylamino)-oxalyl)-furan], the pEC50 with hepatitis B virus (HBV) is 4.30 to 5.30. For the same molecule, the cytotoxic concentration (CC50) at 6 days in data set [1] amounted to 82 µM.

With `Cc1oc(C(=O)C(=O)NCC#Cc2ccccc2)cc1C(=O)Nc1ccc(F)c(Cl)c1` [Compound 7, 2-Methyl-3-amide-N-(3-chloro-4-fluorophenyl)-5-(2-(3-phenyl-2-eynylpropylamino)-oxalyl)-furan], the pEC50 with hepatitis B virus (HBV) was < 4.30. In addition, the CC50 at 6 days in data set [1] came to 29 µM.

In the data set on hepatitis B virus (HBV), `Cc1oc(C(=O)C(=O)Nc2ccccc2)cc1C(=O)Nc1ccc(F)c(Cl)c1` [Compound 9, 2-Methyl-3-amide-N-(3-chloro-4-fluorophenyl)-5-(2-anilino-oxalyl)-furan] showed a pEC50 of 4.30 to 5.30. In addition, in data set [1], the 50% cytotoxic concentration (CC50) at 6 days was > 100 µM.

On to `C=CCn1cc(CNC(=O)C(=O)c2cc(C(=O)Nc3ccc(F)c(Cl)c3)c(C)o2)nn1` [Compound 10, 2-Methyl-3-amide-N-(3-chloro-4-fluorophenyl)-5-(2-(1-allyl-1H[1,2,3]-triazole-4-methylamino)-oxalyl)-furan], for which the pEC50 with hepatitis B virus (HBV) is < 4.30. In addition, the CC50 at 6 days in data set [1] was > 100 µM.

Regarding `Cc1oc(C(=O)C(=O)NC2(C(F)(F)F)CC2)cc1C(=O)Nc1ccc(F)c(Cl)c1` [Compound 16, 2-Methyl-3-amide-N-(3-chloro-4-fluorophenyl)-5-(2-(1-trifluoromethyl-cyclopropylamino)-oxalyl)-furan], the pEC50 in the data set on hepatitis B virus (HBV) was 6.30 to 7.30. In data set [1], the cytotoxic concentration (CC50) at 6 days was > 100 µM.

The molecule `Cc1oc(C(=O)C(=O)NCc2c[nH]nn2)cc1C(=O)Nc1ccc(F)c(Cl)c1` [Compound 17, 2-Methyl-3-amide-N-(3-chloro-4-fluorophenyl)-5-(2-(1H-1,2,3-triazole-4-methylamino)-oxalyl)-furan] gave a pEC50 in the data set with hepatitis B virus (HBV) of 4.30 to 5.30. For the same molecule, the CC50 at 6 days in data set [1] is > 100 µM.

For the molecule `Cc1oc(C(=O)C(=O)NC(C)(C)C)cc1C(=O)Nc1ccc(F)cc1` [Compound 18, 2-Methyl-3-amide-N-(4-fluorophenyl)-5-(2-tert-butylamino-oxalyl)-furan], the pEC50 in the data set on hepatitis B virus (HBV) was 5.30 to 6.30. Besides, the CC50 at 6 days in data set [1] is > 100 µM.

Consider `Cc1oc(C(=O)C(=O)NC(C)(C)C)cc1C(=O)Nc1ccc(F)c(F)c1` [Compound 19, 2-Methyl-3-amide-N-(3,4-difluorophenyl)-5-(2-tert-butylamino-oxalyl)-furan], for which the pEC50 with hepatitis B virus (HBV) is 5.30 to 6.30. Moreover, in data set [1], the CC50 at 6 days is > 100 µM.

The molecule `Cc1oc(C(=O)C(=O)NC(C)(C)C)cc1C(=O)Nc1cc(F)c(F)c(F)c1` [Compound 20, 2-Methyl-3-amide-N-(3,4,5-trifluorophenyl)-5-(2-tert-butylamino-oxalyl)-furan] had a pEC50 in the data set with hepatitis B virus (HBV) of 6.30 to 7.30. Also, the CC50 at 6 days in data set [1] was > 100 µM.

`Cc1oc(C(=O)C(=O)NC(C)(C)C)cc1C(=O)Nc1ccc(F)c(C#N)c1` [Compound 21] had a negative logarithm of the EC50 (pEC50) in the data set with hepatitis B virus (HBV) of 5.30 to 6.30. Also, the CC50 at 6 days in data set [1] was > 100 µM.

For the molecule `Cc1oc(C(=O)C(=O)NC(C)(C)C)cc1C(=O)Nc1ccc(C(F)(F)F)cc1` [Compound 22, 2-Methyl-3-amide-N-(4-trifluoromethylphenyl)-5-(2-tert-butylamino-oxalyl)-furan], in the data set on hepatitis B virus (HBV), the pEC50 was < 4.30. The CC50 at 6 days in data set [1] is > 100 µM.

In the data set on hepatitis B virus (HBV), `C#Cc1cc(NC(=O)c2cc(C(=O)C(=O)NC(C)(C)C)oc2C)ccc1F` [Compound 27, 2-Methyl-3-amide-N-(3-alkynyl-4-fluorophenyl)-5-(2-tert-butylamino-oxalyI)-furan] gave a pEC50 of 4.30 to 5.30. The CC50 at 6 days in data set [1] was > 100 µM.

As to `C#Cc1cccc(NC(=O)c2cc(C(=O)C(=O)NC(C)(C)C)oc2C)c1` [Compound 28, 2-Methyl-3-amide-N-(3-alkynylphenyl)-5-(2-tert-butylamino-oxalyl)-furan], the pEC50 with hepatitis B virus (HBV) was 4.30 to 5.30. Moreover, in data set [1], the CC50 at 6 days was > 100 µM.

`Cc1sc(C(=O)C(=O)NC(C)(C)C)cc1C(=O)Nc1ccc(F)c(Cl)c1` [Compound 29, 2-Methyl-3-amide-N-(3-chloro-4-fluorophenyl)-5-(2-tert-butylamino-oxalyl)-thiophene] had a pEC50 in the data set on hepatitis B virus (HBV) of 6.30 to 7.30. The CC50 at 6 days in data set [1] is > 100 µM.

Take `C#CCNC(=O)C(=O)c1cc(C(=O)Nc2ccc(F)c(Cl)c2)c(C)s1` [Compound 30, 2-Methyl-3-amide-N-(3-chloro-4-fluorophenyl)-5-(2-propargylamino-oxalyl)-thiophene]: in the data set on hepatitis B virus (HBV), the negative logarithm of the EC50 (pEC50) was 5.30 to 6.30. Moreover, in data set [1], the CC50 at 6 days is > 100 µM.

In the data set on hepatitis B virus (HBV), `Cc1sc(C(=O)C(=O)NC(C)(C)C)cc1C(=O)Nc1ccc(F)c(F)c1` [Compound 34, 2-Methyl-3-amide-N-(3,4-difluorophenyl)-5-(2-tert-butylamino-oxalyl)-thiophene] gave a pEC50 of 6.30 to 7.30. Besides, the CC50 at 6 days in data set [1] is > 100 µM.

In the data set with hepatitis B virus (HBV), `Cc1sc(C(=O)C(=O)NC(C)(C)C)cc1C(=O)Nc1cc(F)c(F)c(F)c1` [Compound 35, 2-Methyl-3-amide-N-(3,4,5-trifluorophenyl)-5-(2-tert-butylamino-oxalyl)-thiophene] gave a pEC50 of 5.30 to 6.30. Besides, the 50% cytotoxic concentration (CC50) at 6 days in data set [1] is > 100 µM.

For the molecule `C#CC(C)(C)NC(=O)C(=O)c1sc(C)c(C(=O)Nc2ccc(F)c(Cl)c2)c1C` [Compound 38, 2,4-Dimethyl-3-amide-N-(3-chloro-4-fluorophenyl)-5-(2-(1,1-dimethylpropynamido)-oxalyl)-thiophene], the pEC50 with hepatitis B virus (HBV) was ≥ 7.30. For the same molecule, the half-maximal cytotoxic concentration (CC50) at 6 days in data set [1] was > 100 µM.

For the molecule `C#CC(C)(C)NC(=O)C(=O)c1sc(C)c(C(=O)Nc2ccc3occc3c2)c1C` [Compound 39, 2,4-Dimethyl-3-amide-N-(benzofuran-5-yl)-5-(2-(1,1-dimethylpropynamido)-oxalyl)-Thiophene], the pEC50 with hepatitis B virus (HBV) was ≥ 7.30. Moreover, the half-maximal cytotoxic concentration (CC50) at 6 days in data set [1] is > 100 µM.

In the case of `COCC1(NC(=O)C(=O)c2sc(C)c(C(=O)Nc3ccc4occc4c3)c2C)COC1` [Compound 41], the negative logarithm of the EC50 (pEC50) with hepatitis B virus (HBV) is ≥ 7.30. Further, in data set [1], the CC50 at 6 days was > 100 µM.

`CC(C)(C)NC(=O)C(=O)c1cc(C(=O)Nc2ccc(F)cc2)c(C(C)(C)C)o1` [Compound 43, 2-tert-Butyl-3-amide-N-(4-fluorophenyl)-5-(2-tert-butylamino-oxalyl)-furan] gave a pEC50 in the data set on hepatitis B virus (HBV) of 4.30 to 5.30. Also, the CC50 at 6 days in data set [1] was > 100 µM.

Take `CC(C)(C)NC(=O)C(=O)c1nc(C(=O)Nc2ccc(F)c(Cl)c2)cs1` [Compound 44, 2-(2-Tert-Butylamino-oxalyl)-4-amide-N-(3-chloro-4-fluoro-phenyl)-thiazole]: the pEC50 in the data set with hepatitis B virus (HBV) was < 4.30. Besides, the CC50 at 6 days in data set [1] was 28 µM.

As for `Cc1oc(C(=O)C(=O)NC(C)(C)C)c(Cl)c1C(=O)Nc1cc(F)c(F)c(F)c1` [Compound 49, 2-Methyl-3-amide-N-(3,4,5-trifluorophenyl)-4-chloro-5-(2-tert-butylamino-oxalyl)-furan], in the data set on hepatitis B virus (HBV), the pEC50 is 4.30 to 5.30. Moreover, the half-maximal cytotoxic concentration (CC50) at 6 days in data set [1] is 47 µM.

Turning to `C#CC1(NC(=O)C(=O)c2c(C)c(C(=O)Nc3ccc4occc4c3)n(C)c2C)CC1` [Compound 55, 1,3,5-Trimethyl-2-amide-N-(benzofuran-5-yl)-4-(2-(1-ethynylcyclopropane-1-amino)-oxalyl)-Pyrrole], the pEC50 in the data set on hepatitis B virus (HBV) was ≥ 7.30. Also, the half-maximal cytotoxic concentration (CC50) at 6 days in data set [1] was > 100 µM.

In the case of `Cc1c(C(=O)C(=O)NC2(C)COC2)c(C)n(C)c1C(=O)Nc1ccc2occc2c1` [Compound 57, 1,3,5-Trimethyl-2-amide-N-(benzofuran-5-yl)-4-(2-(3-methyl-3-oxetanino)-oxalyl)-pyrrole], the pEC50 with hepatitis B virus (HBV) is ≥ 7.30. Besides, in data set [1], the half-maximal cytotoxic concentration (CC50) at 6 days was > 100 µM.
